# According to patent US20240270821A1, “GIP/GLP1/GCG TRI-RECEPTOR AGONISTS AND USES THEREOF” (priority 2023, published 2024):
# Where two headings read alike, the source gives them in different places. Starred links: 1 amine or outer side, 2 acyl side, 3 side chain; linkers in the order of their positions; H or OH if unused. Non-standard residues stand in square brackets, D forms with d. Residues, ends and D or L forms follow the SMILES beside them. Groups on a side chain read outwards from the residue. *: point of attachment. C20 diacid = O=C(O)CCCCCCCCCCCCCCCCCCC(=O)*; C18 diacid = O=C(O)CCCCCCCCCCCCCCCCC(=O)*; αMePhe(2-F) = C[C@](N)(Cc1ccccc1F)C(=O)O; γGlu = O=C(O)[C@H](CCC(=O)[*:2])N[*:1]; αMe4Pal = C[C@](N)(Cc1ccncc1)C(=O)O; αMeY = C[C@](N)(Cc1ccc(O)cc1)C(=O)O; αMeF = C[C@](N)(Cc1ccccc1)C(=O)O; 4Pal = N[C@@H](Cc1ccncc1)C(=O)O; αMeL = CC(C)C[C@](C)(N)C(=O)O; αMeS = C[C@](N)(CO)C(=O)O; Orn = NCCC[C@H](N)C(=O)O; AEEA = NCCOCCOCC(=O)O; Aib = CC(C)(N)C(=O)O
# Key:
# Format in all cases: cell-based
# hGLP-1R [1] = target: T1, hGLP-1R (Homo sapiens, UniProt P43220); assay: Functional cAMP activity in the presence of 1% HSA; conditions: read-out: cAMP Rel EC50, hGLP-1R
# human GcgR = human GcgR (Homo sapiens, UniProt P47871); assay: Functional cAMP activity in the presence of 1% HSA; conditions: read-out: cAMP Rel EC50, hGcgR
# hGIPR [2] = target: T2, hGIPR (Homo sapiens, UniProt P48546); assay: Functional cAMP activation in the presence of 0.1% casein (no HSA); conditions: read-out: Relative cAMP EC50, hGIPR;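 further: intracellular cAMP rise after 30 min at 37 °C read by HTRF against a standard curve, scaled between buffer alone (0%) and top control ligand concentration (100%), four-parameter fit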
# T2 sequence (P48546 22-466): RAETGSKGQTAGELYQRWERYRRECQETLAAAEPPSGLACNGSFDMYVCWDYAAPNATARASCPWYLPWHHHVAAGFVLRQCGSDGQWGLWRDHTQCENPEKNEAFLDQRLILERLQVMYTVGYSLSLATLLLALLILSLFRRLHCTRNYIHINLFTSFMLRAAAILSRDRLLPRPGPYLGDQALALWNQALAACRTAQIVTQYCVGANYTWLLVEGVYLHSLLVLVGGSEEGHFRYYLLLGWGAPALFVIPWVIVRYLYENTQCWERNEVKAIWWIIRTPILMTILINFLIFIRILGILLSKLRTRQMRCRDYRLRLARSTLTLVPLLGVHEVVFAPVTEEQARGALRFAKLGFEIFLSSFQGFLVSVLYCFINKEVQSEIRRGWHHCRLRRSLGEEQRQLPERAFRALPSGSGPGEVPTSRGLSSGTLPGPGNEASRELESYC
# Procedure: After a 30-minute incubation at 37° C., the resulting increase in intracellular cAMP is quantitatively determined using the CisBio CAMP Dynamic 2 HTRF Assay Kit (62AM4PEJ). Briefly, cAMP levels within the cell are detected by adding the cAMP-d2 conjugate in cell lysis buffer followed by the antibody anti-cAMP-Eu^3+-Cryptate, also in cell lysis buffer.
# Intracellular cAMP levels are determined by extrapolation using a standard curve. Dose response curves of compounds are plotted as the percentage of stimulation normalized to minimum (buffer only) and maximum (maximum concentration of each control ligand) values and analyzed using a four parameter non-linear regression fit with a variable slope (Genedata Screener 13). EC50 is the concentration of compound causing half-maximal simulation in a dose response curve. Each relative EC50 value for the Geometric mean calculation is determined from a curve fitting.
# hGcgR = hGcgR (Homo sapiens, UniProt P47871); assay: as above; conditions: read-out: Relative cAMP EC50, hGcgR;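 further: intracellular cAMP rise after 30 min at 37 °C, read by HTRF against a cAMP standard curve, scaled from buffer only (0%) to maximal control ligand response (100%)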
# hGLP-1R [3] = target: T1, hGLP-1R; assay: as above; conditions: read-out: Relative cAMP EC50, hGLP-1R
# hGIPR [4] = target: T2, hGIPR; assay: Functional cAMP activity in the presence of 1% HSA; conditions: read-out: cAMP Rel EC50, hGIPR
# [5] = in the presence of 0.1% casein (no HSA), geometric mean
# 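Wherever Relative cAMP EC50, hGLP-1R is given: intracellular cAMP rise after 30 min at 37 °C read by HTRF, normalized between buffer only (0%) and maximal control ligand (100%), four-parameter variable-slope fit.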
# human GcgR, sequence (P47871 26-477): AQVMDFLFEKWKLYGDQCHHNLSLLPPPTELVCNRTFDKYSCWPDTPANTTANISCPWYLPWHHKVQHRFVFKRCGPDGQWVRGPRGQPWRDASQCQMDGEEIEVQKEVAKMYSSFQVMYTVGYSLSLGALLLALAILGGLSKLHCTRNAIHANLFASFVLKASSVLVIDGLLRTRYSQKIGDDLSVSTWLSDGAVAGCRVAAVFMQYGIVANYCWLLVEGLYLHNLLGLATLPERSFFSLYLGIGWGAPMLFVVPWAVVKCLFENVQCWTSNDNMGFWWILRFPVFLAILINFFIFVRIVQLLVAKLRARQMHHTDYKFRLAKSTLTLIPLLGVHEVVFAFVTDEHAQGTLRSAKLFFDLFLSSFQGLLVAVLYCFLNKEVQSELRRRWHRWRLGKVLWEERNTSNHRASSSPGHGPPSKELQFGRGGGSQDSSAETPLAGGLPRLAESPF
# hGcgR, sequence (P47871 26-477): as above
# T1 sequence (P43220 24-463): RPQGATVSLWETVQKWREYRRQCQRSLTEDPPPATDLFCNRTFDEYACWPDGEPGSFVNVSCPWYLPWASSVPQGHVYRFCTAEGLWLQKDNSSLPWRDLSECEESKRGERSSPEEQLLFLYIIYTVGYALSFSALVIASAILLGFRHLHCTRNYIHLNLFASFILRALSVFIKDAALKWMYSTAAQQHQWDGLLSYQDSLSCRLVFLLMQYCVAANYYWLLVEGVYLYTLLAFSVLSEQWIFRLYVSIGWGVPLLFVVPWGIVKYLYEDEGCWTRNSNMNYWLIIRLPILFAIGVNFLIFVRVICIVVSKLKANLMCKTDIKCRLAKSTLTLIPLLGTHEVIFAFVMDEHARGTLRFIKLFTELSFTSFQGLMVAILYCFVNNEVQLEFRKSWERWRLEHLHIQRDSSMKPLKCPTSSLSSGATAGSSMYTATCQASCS
Molecule,EC50 (hGLP-1R [1]) [nM],EC50 (human GcgR) [nM],EC50 (hGIPR [2]; [5]) [nM],EC50 (hGcgR; [5]) [nM],EC50 (hGLP-1R [3]; [5]) [nM],EC50 (hGIPR [4]) [nM],EC50 (hGIPR [2]) [nM],EC50 (hGcgR) [nM],EC50 (hGLP-1R [3]) [nM]
CC[C@H](C)[C@H](NC(=O)[C@H](CC(C)C)NC(=O)[C@H](Cc1ccc(O)cc1)NC(=O)[C@H](CCC(=O)O)NC(=O)[C@@H](NC(=O)[C@H](Cc1ccccc1)NC(=O)[C@H](C)NC(=O)C(C)(C)NC(=O)[C@H](CCC(N)=O)NC(=O)[C@H](C)NC(=O)[C@H](CCCCNC(=O)COCCOCCNC(=O)COCCOCCNC(=O)CC[C@H](NC(=O)CCCCCCCCCCCCCCCCCCC(=O)O)C(=O)O)NC(=O)[C@H](CCCCN)NC(=O)[C@H](CC(=O)O)NC(=O)[C@H](CC(C)C)NC(=O)[C@](C)(CC(C)C)NC(=O)[C@@H](NC(=O)[C@](C)(CO)NC(=O)[C@H](Cc1ccc(O)cc1)NC(=O)[C@H](CC(=O)O)NC(=O)[C@H](CO)NC(=O)[C@@H](NC(=O)[C@H](Cc1ccccc1)NC(=O)[C@@H](NC(=O)CNC(=O)[C@H](CCC(N)=O)NC(=O)C(C)(C)NC(=O)[C@@H](N)Cc1ccc(O)cc1)[C@@H](C)O)[C@@H](C)O)[C@@H](C)CC)[C@@H](C)CC)C(=O)N[C@@H](CCC(=O)O)C(=O)NCC(=O)NCC(=O)N1CCC[C@H]1C(=O)N[C@@H](CO)C(=O)N[C@@H](CO)C(=O)NCC(=O)N[C@@H](C)C(=O)N1CCC[C@H]1C(=O)N1CCC[C@H]1C(=O)N1CCC[C@H]1C(=O)N[C@@H](CO)C(N)=O [Example 382] (H-Y[Aib]QGTFTSDY[αMeS]I[αMeL]LDKK([AEEA-AEEA-γGlu-C20 diacid])AQ[Aib]AFIEYLIEGGPSSGAPPPS-NH2),61.5,1050,0.0368,3.72,0.291,17.7,,,
H-Y[Aib]QGTFTSD[4Pal]SQ[αMeL]LDKK([γGlu-γGlu-C18 diacid])AQ[αMe4Pal]AFIEYLIAGGESSGAPPPSGSEE-NH2 [Example 963],215,900,0.244,5.81,1.77,25.1,,,
H-Y[Aib]QGTFTSDFS[Orn][αMeL]LDKK([AEEA-γGlu-C18 diacid])AQ[Aib]AFIEWLLEGGHSSGAPPPSGS-NH2 [Example 170],361,1800,0.401,5.29,4.11,43.5,,,
CC[C@H](C)[C@H](NC(=O)[C@H](Cc1ccccc1)NC(=O)[C@H](C)NC(=O)C(C)(C)NC(=O)[C@H](CCC(N)=O)NC(=O)[C@H](C)NC(=O)[C@H](CCCCNC(=O)CC[C@H](NC(=O)CC[C@H](NC(=O)CCCCCCCCCCCCCCCCC(=O)O)C(=O)O)C(=O)O)NC(=O)[C@H](CCCCN)NC(=O)[C@H](CC(=O)O)NC(=O)[C@H](CC(C)C)NC(=O)[C@H](CC(C)C)NC(=O)[C@@H](NC(=O)[C@H](CO)NC(=O)[C@H](Cc1ccc(O)cc1)NC(=O)[C@H](CC(=O)O)NC(=O)[C@H](CO)NC(=O)[C@@H](NC(=O)[C@](C)(Cc1ccccc1F)NC(=O)[C@@H](NC(=O)CNC(=O)[C@H](CCC(N)=O)NC(=O)C(C)(C)NC(=O)[C@@H](N)Cc1ccc(O)cc1)[C@@H](C)O)[C@@H](C)O)[C@@H](C)CC)C(=O)N[C@@H](CCC(=O)O)C(=O)N[C@@H](Cc1ccc(O)cc1)C(=O)N[C@@H](CC(C)C)C(=O)N[C@@H](CCC(=O)O)C(=O)N[C@@H](CCC(=O)O)C(=O)NCC(=O)NCC(=O)N1CCC[C@H]1C(=O)N[C@@H](CO)C(=O)N[C@@H](CO)C(=O)NCC(=O)N[C@@H](C)C(=O)N1CCC[C@H]1C(=O)N1CCC[C@H]1C(=O)N1CCC[C@H]1C(=O)N[C@@H](CO)C(=O)N[C@@H](CCC(=O)O)C(N)=O [Example 433] (H-Y[Aib]QGT[αMePhe(2-F)]TSDYSILLDKK([γGlu-γGlu-C18 diacid])AQ[Aib]AFIEYLEEGGPSSGAPPPSE-NH2; N-terminus assumed),43.4,532,,,,15.3,0.0206,5.78,0.273
H-Y[Aib]QGTFTSD[4Pal]SQ[αMeL]LDKK([AEEA-γGlu-C18 diacid])AQ[αMe4Pal]AFIE[αMe4Pal]LIEGGPSSGAPPPSGSEE-NH2 [Example 954],357,450,0.268,3.66,4.79,35.3,,,
CC[C@H](C)[C@H](NC(=O)[C@H](Cc1ccccc1)NC(=O)[C@H](C)NC(=O)C(C)(C)NC(=O)[C@H](CCC(N)=O)NC(=O)[C@H](C)NC(=O)[C@H](CCCCNC(=O)COCCOCCNC(=O)CC[C@H](NC(=O)CCCCCCCCCCCCCCCCC(=O)O)C(=O)O)NC(=O)[C@H](CCCCN)NC(=O)[C@H](CC(=O)O)NC(=O)[C@H](CC(C)C)NC(=O)[C@](C)(CC(C)C)NC(=O)[C@@H](NC(=O)[C@H](CO)NC(=O)[C@H](Cc1ccc(O)cc1)NC(=O)[C@H](CC(=O)O)NC(=O)[C@H](CO)NC(=O)[C@@H](NC(=O)[C@](C)(Cc1ccccc1)NC(=O)[C@@H](NC(=O)CNC(=O)[C@H](CCC(N)=O)NC(=O)C(C)(C)NC(=O)[C@@H](N)Cc1ccc(O)cc1)[C@@H](C)O)[C@@H](C)O)[C@@H](C)CC)C(=O)N[C@@H](CCC(=O)O)C(=O)N[C@@H](Cc1ccc(O)cc1)C(=O)N[C@@H](CC(C)C)C(=O)N[C@@H](CCC(=O)O)C(=O)N[C@@H](CCC(=O)O)C(=O)NCC(=O)NCC(=O)N1CCC[C@H]1C(=O)N[C@@H](CO)C(=O)N[C@@H](CO)C(=O)NCC(=O)N[C@@H](C)C(=O)N1CCC[C@H]1C(=O)N1CCC[C@H]1C(=O)N1CCC[C@H]1C(=O)N[C@@H](CO)C(=O)N[C@@H](CCC(=O)O)C(=O)NCC(N)=O [Example 395],34.7,1190,,,,6.69,0.0248,5.55,0.349
H-Y[Aib]QGTFTSD[4Pal]S[Orn][αMeL]LDKK([AEEA-γGlu-γGlu-C18 diacid])AQ[αMe4Pal]AFIE[αMe4Pal]LIE[Aib]GPSSGEPPPSGS-NH2 [Example 987],515,267,0.194,3.62,6.33,11.7,,,
H-Y[Aib]QGT[αMePhe(2-F)]TSD[4Pal][αMeS]ILLD[Orn]K([γGlu-γGlu-C18 diacid])AQ[Aib][Orn]FI[dE][αMeY]LQEGGPSSGEPPPSGAEE-NH2 [Example 575],37.1,484,,,,16.2,0.321,3.69,0.438
H-Y[Aib]QGT[αMePhe(2-F)]TSD[4Pal]SILLDKK([γGlu-γGlu-C18 diacid])AQ[Aib]AFIEYLEEGGPSSGAPPPEGTE-NH2 [Example 659],81.5,735,,,,5.75,0.0673,5.89,1.31
CC[C@H](C)[C@H](NC(=O)[C@H](Cc1ccccc1)NC(=O)[C@H](C)NC(=O)C(C)(C)NC(=O)[C@H](CCC(N)=O)NC(=O)[C@H](C)NC(=O)[C@H](CCCCNC(=O)COCCOCCNC(=O)CC[C@H](NC(=O)CCCCCCCCCCCCCCCCC(=O)O)C(=O)O)NC(=O)[C@H](CCCCN)NC(=O)[C@H](CC(=O)O)NC(=O)[C@H](CC(C)C)NC(=O)[C@H](CC(C)C)NC(=O)[C@@H](NC(=O)[C@H](CO)NC(=O)[C@H](Cc1ccc(O)cc1)NC(=O)[C@H](CC(=O)O)NC(=O)[C@H](CO)NC(=O)[C@@H](NC(=O)[C@](C)(Cc1ccccc1)NC(=O)[C@@H](NC(=O)CNC(=O)[C@H](CCC(N)=O)NC(=O)C(C)(C)NC(=O)[C@@H](N)Cc1ccc(O)cc1)[C@@H](C)O)[C@@H](C)O)[C@@H](C)CC)C(=O)N[C@@H](CCC(=O)O)C(=O)N[C@@H](Cc1ccc(O)cc1)C(=O)N[C@@H](CC(C)C)C(=O)N[C@@H](CCC(=O)O)C(=O)N[C@@H](CCC(=O)O)C(=O)NCC(=O)NCC(=O)N1CCC[C@H]1C(=O)N[C@@H](CO)C(=O)N[C@@H](CO)C(=O)NCC(=O)N[C@@H](C)C(=O)N1CCC[C@H]1C(=O)N1CCC[C@H]1C(=O)N1CCC[C@H]1C(=O)N[C@@H](CO)C(N)=O [Example 392] (H-Y[Aib]QGT[αMeF]TSDYSILLDKK([AEEA-γGlu-C18 diacid])AQ[Aib]AFIEYLEEGGPSSGAPPPS-NH2),41.5,611,,,,28.7,0.0571,3.02,0.253
H-Y[Aib]QGT[αMePhe(2-F)]TSDYSILLDKK([AEEA-γGlu-C18 diacid])AQ[Aib]AFIE[4Pal]LEEGGPSSGAPPPSEG-NH2 [Example 411],82.1,1170,,,,23.8,0.058,3.94,0.709
H-Y[Aib]QGT[αMePhe(2-F)]TSD[4Pal]SILLDKK([γGlu-γGlu-C18 diacid])AQ[Aib]AFIEYLEEGGPSSGAPPPSGGGE-NH2 [Example 619],94,819,,,,6.78,0.0685,6.34,0.992
H-Y[Aib]QGTFTSDFSK[αMeL]LDKK([AEEA-γGlu-C18 diacid])AQ[Aib]AFIEYLIE[Aib]GESSGAPPPSGS-NH2 [Example 216],90.6,895,0.0887,2.7,0.52,12,,,
